Patent publication US8329725B2, “Annelated pyrrolidin sulfonamides with oxadiazolone headgroup, processes for their preparation and their use as pharmaceuticals” (Sanofi, priority 2008, dated 2012)

Tests used:
human PPARdelta = target: T1, human PPARdelta (Homo sapiens, UniProt Q03181); test: Cellular PPARdelta assay (luciferase reporter, stably transfected HEK cell line); assay type: cell-based; conditions: PPARdelta reporter cell line (HEK, GR-GAL4-humanPPARdelta-LBD)
T1 construct: human PPARdelta receptor (amino acids S139-Y441); expressed in transfected cells
T1 sequence (Q03181 139-441): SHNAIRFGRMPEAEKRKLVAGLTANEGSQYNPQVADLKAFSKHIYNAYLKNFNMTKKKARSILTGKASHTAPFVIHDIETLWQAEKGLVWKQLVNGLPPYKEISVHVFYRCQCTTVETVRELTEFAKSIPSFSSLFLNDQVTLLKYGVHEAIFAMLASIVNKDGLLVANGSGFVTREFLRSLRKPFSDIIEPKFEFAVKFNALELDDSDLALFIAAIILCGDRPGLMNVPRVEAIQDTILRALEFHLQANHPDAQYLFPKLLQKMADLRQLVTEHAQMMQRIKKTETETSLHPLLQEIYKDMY
Procedure: Determination of EC50 Values of PPAR Agonists in the Cellular PPARdelta Assay
The potency of substances which bind to human PPARdelta and activate it in an agonistic manner is analyzed using a stably transfected HEK cell line (HEK=human embryo kidney) which is referred to here as PPARdelta reporter cell line. In analogy to the assay described for PPARalpha, the PPARdelta reporter cell line also contains two genetic elements, a luciferase reporter element (pdeltaM-GAL4-Luc-Zeo) and a PPARdelta fusion protein (GR-GAL4-humanPPARdelta-LBD) which mediates expression of the luciferase reporter element depending on a PPARdelta ligand. The stably and constitutively expressed fusion protein GR-GAL4-humanPPARdelta-LBD binds in the cell nucleus of the PPARdelta reporter cell line via the GAL4 protein portion to the GAL4 DNA binding motifs 5′-upstream of the luciferase reporter element which is stably integrated in the genome of the cell line. There is only little expression of the luciferase reporter gene in the absence of a PPARdelta ligand if fatty acid-depleted fetal calf serum (cs-FCS) is used in the assay. PPARdelta ligands bind and activate the PPARdelta fusion protein and thereby stimulate expression of the luciferase reporter gene. The luciferase which is formed can be detected by means of chemiluminescence via an appropriate substrate.
The production of the stable PPARdelta reporter cell line is based on a stable HEK-cell clone which was stably transfected with a luciferase reporter element. This step was already described above in the section “construction of the PPARalpha reporter cell line”. In a second step, the PPARdelta fusion protein (GR-GAL4-humanPPARdelta-LBD was stably introduced into this cell clone. For this purpose, the cDNA coding for the N-terminal 76 amino acids of the glucocorticoid receptor (Accession #P04150) was linked to the cDNA section coding for amino acids 1-147 of the yeast transcription factor GAL4 (Accession #P04386). The cDNA of the ligand-binding domain of the human PPARdelta receptor (amino acids S139-Y441; Accession #L07592) was cloned in at the 3′-end of this GR-GAL4 construct. The fusion construct prepared in this way (GR-GAL4-humanPPARdelta-LBD) was recloned into the plasmid pcDNA3 (Invitrogen) in order to enable constitutive expression by the cytomegalovirus promoter. This plasmid was linearized with a restriction endonuclease and stably transfected into the previously described cell clone containing the luciferase reporter element. […]
The activity of PPARdelta agonists is determined in a 3-day assay in exact analogy to the procedure already described for the PPARalpha reporter cell line except that the PPARdelta reporter cell line and a specific PPARdelta agonist was used as a standard to control test efficacy.

human PPARalpha = target: T2, human PPARalpha (Homo sapiens, UniProt Q07869); test: Cellular PPARalpha assay (luciferase reporter, stably transfected HEK cell line); assay type: cell-based; conditions: PPARalpha reporter cell line (HEK, GR-GAL4-humanPPARalpha-LBD)
T2 construct: human PPARalpha receptor (amino acids S167-Y468); expressed in transfected cells
T2 sequence (Q07869 167-468): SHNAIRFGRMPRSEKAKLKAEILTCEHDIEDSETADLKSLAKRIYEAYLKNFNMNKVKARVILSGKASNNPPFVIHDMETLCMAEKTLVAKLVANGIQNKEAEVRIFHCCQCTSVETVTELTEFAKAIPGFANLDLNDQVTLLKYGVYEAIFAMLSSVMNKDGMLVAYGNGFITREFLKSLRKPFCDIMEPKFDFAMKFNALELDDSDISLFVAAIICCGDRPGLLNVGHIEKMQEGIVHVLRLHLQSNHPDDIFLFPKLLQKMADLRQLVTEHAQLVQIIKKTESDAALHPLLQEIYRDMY
Procedure: Determination of EC50 Values of PPAR Agonists in the Cellular PPARalpha Assay
The potency of substances which bind to human PPARalpha and activate it in an agonistic manner is analyzed using a stably transfected HEK cell line (HEK=human embryo kidney) which is referred to here as PPARalpha reporter cell line. It contains two genetic elements, a luciferase reporter element (pdeltaM-GAL4-Luc-Zeo) and a PPARalpha fusion protein (GR-GAL4-humanPPARalpha-LBD) which mediates expression of the luciferase reporter element depending on a PPARalpha ligand. The stably and constitutively expressed fusion protein GR-GAL4-humanPPARalpha-LBD binds in the cell nucleus of the PPARalpha reporter cell line via the GAL4 protein portion to the GAL4 DNA binding motifs 5′-upstream of the luciferase reporter element which is stably integrated in the genome of the cell line. There is only weak expression of the luciferase reporter gene in the absence of a PPARalpha ligand if fatty acid-depleted fetal calf serum (cs-FCS) is used in the assay. PPARalpha ligands bind and activate the PPARalpha fusion protein and thereby stimulate the expression of the luciferase reporter gene. The luciferase which is formed can be detected by means of chemiluminescence via an appropriate substrate. […]
The activity of PPARalpha agonists is determined in a 3-day assay which is described below: […]

SMILES	EC50 (human PPARdelta)	EC50 (human PPARalpha)
COc1nc(C)ccc1-c1ccc2c(c1)CCN2S(=O)(=O)c1ccc(-c2noc(=O)[nH]2)cc1 [Example 5, 3-{4-[5-(2-Methoxy-6-methyl-pyridin-3-yl)-2,3-dihydro-indole-1-sulfonyl]-phenyl}-4H-[1,2,4]oxadiazol-5-one]	3.55 µM	–
COc1ccc(-c2ccc3c(c2)CCN3S(=O)(=O)c2ccc(-c3noc(=O)[nH]3)cc2)nc1 [Example 8, 3-{4-[5-(5-Methoxy-pyridin-2-yl)-2,3-dihydro-indole-1-sulfonyl]-phenyl}-4H-[1,2,4]oxadiazol-5-one]	1.3 µM	–
O=c1[nH]c(-c2ccc(S(=O)(=O)N3CCc4cc(-c5ccc(C(F)(F)F)cc5)cnc43)cc2Cl)no1 [Example 14, 3-{2-Chloro-4-[5-(4-trifluoromethyl-phenyl)-2,3-dihydro-pyrrolo[2,3-b]pyridine-1-sulfonyl]-phenyl}-4H-[1,2,4]oxadiazol-5-one]	0.034 µM	1.89 µM
CC1(C)CN(S(=O)(=O)c2ccc(-c3noc(=O)[nH]3)c(Cl)c2)c2ccc(-c3ccc(C(F)(F)F)cc3)nc21 [Example 16, 3-{2-Chloro-4-[3,3-dimethyl-5-(4-trifluoromethyl-phenyl)-2,3-dihydro-pyrrolo[3,2-b]pyridine-1-sulfonyl]-phenyl}-4H-[1,2,4]oxadiazol-5-one]	0.0025 µM	0.8 µM
